Assay results reported in patent US10711002B2, “Purine compounds and method for the treatment of cancer” (THE ROYAL INSTITUTION FOR THE ADVANCEMENT OF …, priority 2016, dated 2020).

The compounds below were run against T1, AURKA (Aurora A) (Homo sapiens, UniProt O14965) (assay: High-throughput kinase assay). Conditions: 100 nM; read-out: Percent inhibition of kinase activity in vitro, AURKA (Aurora A).
T1 sequence (O14965 1-403): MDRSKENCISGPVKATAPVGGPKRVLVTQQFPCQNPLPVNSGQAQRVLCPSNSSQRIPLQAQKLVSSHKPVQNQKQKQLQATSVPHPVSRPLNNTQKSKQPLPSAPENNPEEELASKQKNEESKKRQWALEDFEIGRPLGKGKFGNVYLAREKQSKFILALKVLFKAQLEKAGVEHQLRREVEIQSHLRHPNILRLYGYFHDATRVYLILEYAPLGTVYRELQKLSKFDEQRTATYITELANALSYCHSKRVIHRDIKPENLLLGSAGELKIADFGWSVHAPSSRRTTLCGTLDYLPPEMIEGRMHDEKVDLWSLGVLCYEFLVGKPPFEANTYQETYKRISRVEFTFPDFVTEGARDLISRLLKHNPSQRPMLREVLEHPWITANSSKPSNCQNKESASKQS
Format: biochemical
Description: (§1) Screening of Compounds 1-4 against several kinases identified two prominent targets of these compounds as the Aurora A kinase and calcium dependent protein kinase C isoforms α, βI, βII and […] (Tables 1 to 3). IC50s for these two targets were obtained by plotting inhibition levels at 500 nM, 100 nM, 50 nM and 10 nM (FIG. 3). These kinases are directly involved in pathways controlling cell differentiation programs, metastasis signaling, as well as EMT and CSC programming and their overexpression was reported to predict decreased metastasis-free survival.

Structure (SMILES) | inhibition at 0.1 µM
O=c1c2ccccc2[se]n1-c1nc(NC2CCCCC2)c2nc[nH]c2n1 [Compound 1] | 89%

Same assay, conditions: 500 nM; read-out: Percent inhibition of kinase activity in vitro, AURKA (Aurora A)

Structure (SMILES) | inhibition at 0.5 µM
O=c1c2ccccc2[se]n1-c1nc(NC2CCCCC2)c2nc[nH]c2n1 [Compound 1] | 94%

What follows are compounds tested against AURKB (Aurora B) (Homo sapiens, UniProt Q96GD4) (assay: High-throughput kinase assay). Conditions: 100 nM; read-out: Percent inhibition of kinase activity in vitro, AURKB (Aurora B).
Chain of AURKB (Aurora B) (Q96GD4 whole entry): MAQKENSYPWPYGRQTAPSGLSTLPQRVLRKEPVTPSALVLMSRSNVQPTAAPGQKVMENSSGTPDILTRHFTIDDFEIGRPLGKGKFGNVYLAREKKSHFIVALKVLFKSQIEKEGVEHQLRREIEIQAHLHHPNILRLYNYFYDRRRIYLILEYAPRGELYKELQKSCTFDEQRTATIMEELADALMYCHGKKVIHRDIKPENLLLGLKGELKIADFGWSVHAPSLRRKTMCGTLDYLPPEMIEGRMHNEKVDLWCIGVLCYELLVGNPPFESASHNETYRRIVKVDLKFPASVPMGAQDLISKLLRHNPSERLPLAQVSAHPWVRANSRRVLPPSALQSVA
Format: biochemical
Description: as §1

Structure (SMILES) | inhibition at 0.1 µM
O=c1c2ccccc2[se]n1-c1nc(NC2CCCCC2)c2nc[nH]c2n1 [Compound 1] | 12%

Same assay, conditions: 500 nM; read-out: Percent inhibition of kinase activity in vitro, AURKB (Aurora B)

Structure (SMILES) | inhibition at 0.5 µM
O=c1c2ccccc2[se]n1-c1nc(NC2CCCCC2)c2nc[nH]c2n1 [Compound 1] | 25%

The compounds below were run against BRAF-ZLYTE-100 (Homo sapiens, UniProt P15056) (assay: High-throughput kinase assay). Conditions: 100 nM; read-out: Percent inhibition of kinase activity in vitro, BRAF-ZLYTE-100.
Format: biochemical
Description: as §1

Structure (SMILES) | inhibition at 0.1 µM
O=c1c2ccccc2[se]n1-c1nc(NC2CCCCC2)c2nc[nH]c2n1 [Compound 1] | 1%

These compounds were tested against EGFR (ErbB1) (Homo sapiens, UniProt P00533) (assay: High-throughput kinase assay). Conditions: 100 nM; read-out: Percent inhibition of kinase activity in vitro, EGFR (ErbB1).
Chain of EGFR (ErbB1) (P00533 25-1210): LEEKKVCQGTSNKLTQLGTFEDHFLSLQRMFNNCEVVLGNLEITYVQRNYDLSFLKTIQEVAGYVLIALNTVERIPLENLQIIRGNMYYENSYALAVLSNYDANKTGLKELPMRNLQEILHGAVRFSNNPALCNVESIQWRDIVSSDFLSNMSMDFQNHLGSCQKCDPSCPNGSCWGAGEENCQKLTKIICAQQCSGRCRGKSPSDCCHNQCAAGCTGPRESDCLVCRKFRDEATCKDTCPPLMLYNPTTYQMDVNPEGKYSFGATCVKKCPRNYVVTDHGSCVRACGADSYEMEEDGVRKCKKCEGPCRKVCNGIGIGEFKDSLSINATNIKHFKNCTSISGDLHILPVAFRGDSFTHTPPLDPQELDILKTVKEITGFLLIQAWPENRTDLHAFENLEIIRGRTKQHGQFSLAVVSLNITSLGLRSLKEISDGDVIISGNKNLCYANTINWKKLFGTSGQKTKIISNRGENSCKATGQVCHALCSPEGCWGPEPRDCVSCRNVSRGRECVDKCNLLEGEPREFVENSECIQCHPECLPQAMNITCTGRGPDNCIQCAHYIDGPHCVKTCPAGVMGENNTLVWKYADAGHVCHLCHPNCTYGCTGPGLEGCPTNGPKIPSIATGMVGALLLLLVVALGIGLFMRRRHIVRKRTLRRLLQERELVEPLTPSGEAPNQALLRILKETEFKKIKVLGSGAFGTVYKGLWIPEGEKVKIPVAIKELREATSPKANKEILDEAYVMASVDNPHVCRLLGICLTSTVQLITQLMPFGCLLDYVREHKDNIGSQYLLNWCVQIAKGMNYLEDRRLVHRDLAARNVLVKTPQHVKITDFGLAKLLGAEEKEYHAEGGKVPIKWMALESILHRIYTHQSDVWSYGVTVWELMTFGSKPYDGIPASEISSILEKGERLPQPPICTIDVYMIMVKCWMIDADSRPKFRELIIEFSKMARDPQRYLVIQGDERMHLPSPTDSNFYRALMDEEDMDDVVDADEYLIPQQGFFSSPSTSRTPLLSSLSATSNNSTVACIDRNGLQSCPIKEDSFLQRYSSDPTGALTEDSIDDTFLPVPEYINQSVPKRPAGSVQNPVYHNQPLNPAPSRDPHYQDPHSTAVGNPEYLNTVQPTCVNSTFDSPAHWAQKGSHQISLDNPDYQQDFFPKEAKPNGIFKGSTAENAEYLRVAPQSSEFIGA
Format: biochemical
Description: as §1

Structure (SMILES) | inhibition at 0.1 µM
O=c1c2ccccc2[se]n1-c1nc(NC2CCCCC2)c2nc[nH]c2n1 [Compound 1] | 1%

Same assay, conditions: 500 nM; read-out: Percent inhibition of kinase activity in vitro, EGFR (ErbB1)

Structure (SMILES) | inhibition at 0.5 µM
O=c1c2ccccc2[se]n1-c1nc(NC2CCCCC2)c2nc[nH]c2n1 [Compound 1] | 0%

Each compound was assayed against FLT1 (VEGFR1) (Homo sapiens, UniProt P17948) (assay: High-throughput kinase assay). Conditions: 100 nM; read-out: Percent inhibition of kinase activity in vitro, FLT1 (VEGFR1).
Format: biochemical
Description: as §1

Structure (SMILES) | inhibition at 0.1 µM
O=c1c2ccccc2[se]n1-c1nc(NC2CCCCC2)c2nc[nH]c2n1 [Compound 1] | 0%

Same assay, conditions: 500 nM; read-out: Percent inhibition of kinase activity in vitro, FLT1 (VEGFR1)

Structure (SMILES) | inhibition at 0.5 µM
O=c1c2ccccc2[se]n1-c1nc(NC2CCCCC2)c2nc[nH]c2n1 [Compound 1] | 1%

Each compound was assayed against FRAP1 (mTOR) (Homo sapiens, UniProt P42345) (assay: High-throughput kinase assay). Conditions: 100 nM; read-out: Percent inhibition of kinase activity in vitro, FRAP1 (mTOR).
Format: biochemical
Description: as §1

Structure (SMILES) | inhibition at 0.1 µM
O=c1c2ccccc2[se]n1-c1nc(NC2CCCCC2)c2nc[nH]c2n1 [Compound 1] | 1%

Same assay, conditions: 500 nM; read-out: Percent inhibition of kinase activity in vitro, FRAP1 (mTOR)

Structure (SMILES) | inhibition at 0.5 µM
O=c1c2ccccc2[se]n1-c1nc(NC2CCCCC2)c2nc[nH]c2n1 [Compound 1] | 2%

These compounds were tested against IGF1R (Homo sapiens, UniProt P08069) (assay: High-throughput kinase assay). Conditions: 100 nM; read-out: Percent inhibition of kinase activity in vitro, IGF1R.
Format: biochemical
Description: as §1

Structure (SMILES) | inhibition at 0.1 µM
O=c1c2ccccc2[se]n1-c1nc(NC2CCCCC2)c2nc[nH]c2n1 [Compound 1] | 0%

Same assay, conditions: 500 nM; read-out: Percent inhibition of kinase activity in vitro, IGF1R

Structure (SMILES) | inhibition at 0.5 µM
O=c1c2ccccc2[se]n1-c1nc(NC2CCCCC2)c2nc[nH]c2n1 [Compound 1] | 12%

Each compound was assayed against JAK2 (Homo sapiens, UniProt O60674) (assay: High-throughput kinase assay). Conditions: 100 nM; read-out: Percent inhibition of kinase activity in vitro, JAK2.
Chain of JAK2 (O60674 whole entry): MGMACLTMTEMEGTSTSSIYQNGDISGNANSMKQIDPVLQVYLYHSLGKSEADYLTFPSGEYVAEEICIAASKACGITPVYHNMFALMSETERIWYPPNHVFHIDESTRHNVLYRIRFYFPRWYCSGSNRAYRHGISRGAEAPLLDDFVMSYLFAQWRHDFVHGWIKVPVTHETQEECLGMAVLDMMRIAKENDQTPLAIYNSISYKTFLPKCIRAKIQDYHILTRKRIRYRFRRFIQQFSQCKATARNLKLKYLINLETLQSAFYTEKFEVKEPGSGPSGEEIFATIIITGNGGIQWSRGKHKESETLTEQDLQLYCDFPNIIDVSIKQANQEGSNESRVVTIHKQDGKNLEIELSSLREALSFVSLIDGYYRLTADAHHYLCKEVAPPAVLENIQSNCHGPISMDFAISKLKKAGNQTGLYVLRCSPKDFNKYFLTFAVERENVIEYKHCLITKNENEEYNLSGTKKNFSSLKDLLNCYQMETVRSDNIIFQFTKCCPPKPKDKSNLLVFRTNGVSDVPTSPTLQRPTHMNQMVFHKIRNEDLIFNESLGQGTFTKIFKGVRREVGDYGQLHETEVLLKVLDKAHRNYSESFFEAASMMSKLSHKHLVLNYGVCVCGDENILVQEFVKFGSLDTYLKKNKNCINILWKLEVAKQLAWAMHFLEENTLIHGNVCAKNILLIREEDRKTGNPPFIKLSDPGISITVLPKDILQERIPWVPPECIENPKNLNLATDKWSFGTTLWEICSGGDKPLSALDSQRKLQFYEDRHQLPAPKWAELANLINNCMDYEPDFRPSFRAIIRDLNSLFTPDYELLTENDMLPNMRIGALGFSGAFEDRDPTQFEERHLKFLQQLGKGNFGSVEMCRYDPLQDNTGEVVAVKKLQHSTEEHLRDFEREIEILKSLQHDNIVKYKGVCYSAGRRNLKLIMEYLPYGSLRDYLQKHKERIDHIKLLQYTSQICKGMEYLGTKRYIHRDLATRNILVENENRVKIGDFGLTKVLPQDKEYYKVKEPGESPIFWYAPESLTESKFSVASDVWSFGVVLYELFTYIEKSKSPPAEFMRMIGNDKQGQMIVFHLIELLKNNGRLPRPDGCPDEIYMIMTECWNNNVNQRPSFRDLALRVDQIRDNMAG
Format: biochemical
Description: as §1

Structure (SMILES) | inhibition at 0.1 µM
O=c1c2ccccc2[se]n1-c1nc(NC2CCCCC2)c2nc[nH]c2n1 [Compound 1] | 10%

Same assay, conditions: 500 nM; read-out: Percent inhibition of kinase activity in vitro, JAK2

Structure (SMILES) | inhibition at 0.5 µM
O=c1c2ccccc2[se]n1-c1nc(NC2CCCCC2)c2nc[nH]c2n1 [Compound 1] | 10%

What follows are compounds tested against LCK (Homo sapiens, UniProt P06239) (assay: High-throughput kinase assay). Conditions: 100 nM; read-out: Percent inhibition of kinase activity in vitro, LCK.
Chain of LCK (P06239 whole entry): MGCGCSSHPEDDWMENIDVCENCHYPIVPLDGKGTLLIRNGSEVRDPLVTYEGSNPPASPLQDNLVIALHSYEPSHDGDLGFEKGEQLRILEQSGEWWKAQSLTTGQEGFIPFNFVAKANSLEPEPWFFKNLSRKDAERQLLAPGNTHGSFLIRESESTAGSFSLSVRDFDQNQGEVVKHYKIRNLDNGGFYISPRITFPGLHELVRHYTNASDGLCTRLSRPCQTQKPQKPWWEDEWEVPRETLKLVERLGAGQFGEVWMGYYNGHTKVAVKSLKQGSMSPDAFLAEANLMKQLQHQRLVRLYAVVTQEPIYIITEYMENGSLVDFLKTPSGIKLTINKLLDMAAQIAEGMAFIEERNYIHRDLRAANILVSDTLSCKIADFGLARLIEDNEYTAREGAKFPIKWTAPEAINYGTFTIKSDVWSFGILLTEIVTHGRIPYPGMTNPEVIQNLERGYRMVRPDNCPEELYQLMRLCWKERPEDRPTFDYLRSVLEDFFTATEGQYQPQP
Format: biochemical
Description: as §1

Structure (SMILES) | inhibition at 0.1 µM
O=c1c2ccccc2[se]n1-c1nc(NC2CCCCC2)c2nc[nH]c2n1 [Compound 1] | 7%

Same assay, conditions: 500 nM; read-out: Percent inhibition of kinase activity in vitro, LCK

Structure (SMILES) | inhibition at 0.5 µM
O=c1c2ccccc2[se]n1-c1nc(NC2CCCCC2)c2nc[nH]c2n1 [Compound 1] | 14%

What follows are compounds tested against PRKCA (PKC alpha) (Homo sapiens, UniProt P17252) (assay: High-throughput kinase assay). Conditions: 50 nM; read-out: Percent inhibition of kinase activity in vitro, PRKCA (PKC alpha).
Format: biochemical
Description: as §1

Structure (SMILES) | inhibition at 0.05 µM
O=c1c2ccccc2[se]n1-c1nc(NC2CCCCC2)c2nc[nH]c2n1 [Compound 1] | 68%

Same assay, conditions: 100 nM; read-out: Percent inhibition of kinase activity in vitro, PRKCA (PKC alpha)

Structure (SMILES) | inhibition at 0.1 µM
O=c1c2ccccc2[se]n1-c1nc(NC2CCCCC2)c2nc[nH]c2n1 [Compound 1] | 83%

Same assay, conditions: 500 nM; read-out: Percent inhibition of kinase activity in vitro, PRKCA (PKC alpha)

Structure (SMILES) | inhibition at 0.5 µM
O=c1c2ccccc2[se]n1-c1nc(NC2CCCCC2)c2nc[nH]c2n1 [Compound 1] | 98%

The compounds below were run against PRKCD (PKC delta) (Homo sapiens, UniProt Q05655) (assay: High-throughput kinase assay). Conditions: 50 nM; read-out: Percent inhibition of kinase activity in vitro, PRKCD (PKC delta).
Format: biochemical
Description: as §1

Structure (SMILES) | inhibition at 0.05 µM
O=c1c2ccccc2[se]n1-c1nc(NC2CCCCC2)c2nc[nH]c2n1 [Compound 1] | 0%

Each compound was assayed against T2, PRKCE (PKC epsilon) (Homo sapiens, UniProt Q02156) (assay: High-throughput kinase assay). Conditions: 50 nM; read-out: Percent inhibition of kinase activity in vitro, PRKCE (PKC epsilon).
T2 sequence (Q02156 1-737): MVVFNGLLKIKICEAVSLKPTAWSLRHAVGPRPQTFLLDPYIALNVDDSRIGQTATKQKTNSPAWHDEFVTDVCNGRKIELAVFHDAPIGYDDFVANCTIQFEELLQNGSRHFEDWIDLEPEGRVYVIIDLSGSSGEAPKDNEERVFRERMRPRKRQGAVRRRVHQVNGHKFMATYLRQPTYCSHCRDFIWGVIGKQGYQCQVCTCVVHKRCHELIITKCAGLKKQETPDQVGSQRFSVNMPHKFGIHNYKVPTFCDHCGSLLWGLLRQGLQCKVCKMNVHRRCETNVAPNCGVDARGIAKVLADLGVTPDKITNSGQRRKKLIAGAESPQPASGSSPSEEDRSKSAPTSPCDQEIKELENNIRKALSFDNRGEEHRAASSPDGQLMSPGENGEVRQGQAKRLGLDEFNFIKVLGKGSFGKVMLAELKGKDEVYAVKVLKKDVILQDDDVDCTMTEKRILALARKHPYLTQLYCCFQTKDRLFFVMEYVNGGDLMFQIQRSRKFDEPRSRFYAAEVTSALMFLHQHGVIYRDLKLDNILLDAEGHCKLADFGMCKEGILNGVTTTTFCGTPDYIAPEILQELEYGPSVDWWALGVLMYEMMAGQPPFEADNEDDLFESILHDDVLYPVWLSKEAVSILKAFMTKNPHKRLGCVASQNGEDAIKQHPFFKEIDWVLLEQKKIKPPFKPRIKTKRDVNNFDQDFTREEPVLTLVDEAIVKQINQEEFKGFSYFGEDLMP
Format: biochemical
Description: as §1

Structure (SMILES) | inhibition at 0.05 µM
O=c1c2ccccc2[se]n1-c1nc(NC2CCCCC2)c2nc[nH]c2n1 [Compound 1] | 6%

The compounds below were run against RET (Homo sapiens, UniProt P07949) (assay: High-throughput kinase assay). Conditions: 100 nM; read-out: Percent inhibition of kinase activity in vitro, RET.
Chain of RET (P07949 29-1114): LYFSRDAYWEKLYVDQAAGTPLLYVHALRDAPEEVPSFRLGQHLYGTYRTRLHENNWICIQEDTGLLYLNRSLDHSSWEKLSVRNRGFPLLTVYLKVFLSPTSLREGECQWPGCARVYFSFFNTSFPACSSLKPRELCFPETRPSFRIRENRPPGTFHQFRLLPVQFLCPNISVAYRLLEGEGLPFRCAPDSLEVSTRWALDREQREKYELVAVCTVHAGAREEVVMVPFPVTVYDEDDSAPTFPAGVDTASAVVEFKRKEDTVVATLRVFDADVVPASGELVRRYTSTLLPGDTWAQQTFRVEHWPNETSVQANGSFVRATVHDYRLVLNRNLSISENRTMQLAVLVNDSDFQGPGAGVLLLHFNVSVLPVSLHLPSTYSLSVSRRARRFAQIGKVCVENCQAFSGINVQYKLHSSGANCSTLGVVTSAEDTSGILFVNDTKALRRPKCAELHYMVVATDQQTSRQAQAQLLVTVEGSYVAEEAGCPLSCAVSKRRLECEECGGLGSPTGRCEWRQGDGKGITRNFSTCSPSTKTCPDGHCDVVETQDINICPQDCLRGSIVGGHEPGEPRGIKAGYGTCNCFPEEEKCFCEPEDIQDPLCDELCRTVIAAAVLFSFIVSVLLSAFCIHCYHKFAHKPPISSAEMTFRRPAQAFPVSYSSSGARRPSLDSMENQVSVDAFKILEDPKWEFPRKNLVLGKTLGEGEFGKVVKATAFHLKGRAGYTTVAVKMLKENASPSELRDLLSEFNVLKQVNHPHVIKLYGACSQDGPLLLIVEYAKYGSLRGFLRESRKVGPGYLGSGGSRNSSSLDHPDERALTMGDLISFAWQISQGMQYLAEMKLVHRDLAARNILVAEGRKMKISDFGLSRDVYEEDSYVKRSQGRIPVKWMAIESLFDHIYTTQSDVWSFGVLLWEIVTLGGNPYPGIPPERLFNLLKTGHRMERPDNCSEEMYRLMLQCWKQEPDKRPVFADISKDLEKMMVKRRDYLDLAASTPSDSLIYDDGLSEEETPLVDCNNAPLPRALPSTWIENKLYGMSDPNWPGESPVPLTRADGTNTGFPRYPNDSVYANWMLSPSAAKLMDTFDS
Format: biochemical
Description: as §1

Structure (SMILES) | inhibition at 0.1 µM
O=c1c2ccccc2[se]n1-c1nc(NC2CCCCC2)c2nc[nH]c2n1 [Compound 1] | 5%

Same assay, conditions: 500 nM; read-out: Percent inhibition of kinase activity in vitro, RET

Structure (SMILES) | inhibition at 0.5 µM
O=c1c2ccccc2[se]n1-c1nc(NC2CCCCC2)c2nc[nH]c2n1 [Compound 1] | 23%
